Test system: rat retinal photoreceptor
Test: Electroretinogram of rats treated with different MNU dosages; on a-wave amplitude of electroretinogram: unit not given here; on b-wave amplitude of electroretinogram: unit not given here
Settings: for Number of Eyes with extinguished electroretinogram: n = 10

`CN(N=O)C(N)=O` [MNU, N-methyl-N-nitrosourea] was tested. Which “b-wave latent period of electroretinogram” value (shortened to “b-wave latent period”) (MNU 35 mg/kg, 7 d) did it give?
The value was 73.37 ± 7.73.

What about the “Number of Eyes with extinguished electroretinogram” value (from here on “Number of Eyes”) (MNU 35 mg/kg, 7 d) of the same compound?
The value was 0.

And the “a-wave amplitude of electroretinogram” value (MNU 35 mg/kg, 10 d)?
The value was 40.76 ± 8.92.

And the “a-wave latent period of electroretinogram” value (“a-wave latent period” for short) (MNU 35 mg/kg, 10 d)?
The value was 17.46 ± 2.41.

And the “b-wave amplitude of electroretinogram” value (MNU 35 mg/kg, 10 d)?
Its value is 168.7 ± 32.14.

What about the “b-wave latent period” value (MNU 35 mg/kg, 10 d) of the same compound?
Its value is 73.51 ± 5.61.

And the “Number of Eyes” value (MNU 35 mg/kg, 10 d)?
The value was 0.

What about the “a-wave amplitude of electroretinogram” value (MNU 40 mg/kg, 12 h) of the same compound?
Its value is 17.18 ± 15.90.

What about the “a-wave latent period” value (MNU 40 mg/kg, 12 h) of the same compound?
The value was 10.53 ± 9.18.

What about the “b-wave amplitude of electroretinogram” value (MNU 40 mg/kg, 12 h) of the same compound?
The value was 54.40 ± 46.33.

And the “b-wave latent period” value (MNU 40 mg/kg, 12 h)?
Its value is 41.09 ± 35.82.

And the “Number of Eyes” value (MNU 40 mg/kg, 12 h)?
Its value is 4.

What about the “a-wave amplitude of electroretinogram” value (MNU 40 mg/kg, 1 d) of the same compound?
Its value is 9.44 ± 12.38.

What about the “a-wave latent period” value (MNU 40 mg/kg, 1 d) of the same compound?
The value was 7.02 ± 9.15.

What about the “b-wave amplitude of electroretinogram” value (MNU 40 mg/kg, 1 d) of the same compound?
Its value is 23.09 ± 30.15.

And the “b-wave latent period” value (MNU 40 mg/kg, 1 d)?
The value was 27.85 ± 36.29.

What about the “Number of Eyes” value (MNU 40 mg/kg, 1 d) of the same compound?
Its value is 6.

And the “a-wave amplitude of electroretinogram” value (MNU 40 mg/kg, 3 d)?
Its value is 3.62 ± 7.66.

And the “a-wave latent period” value (MNU 40 mg/kg, 3 d)?
Its value is 3.17 ± 6.69.

What about the “b-wave amplitude of electroretinogram” value (MNU 40 mg/kg, 3 d) of the same compound?
The value was 12.23 ± 26.02.

And the “b-wave latent period” value (MNU 40 mg/kg, 3 d)?
Its value is 12.20 ± 4.24.

And the “Number of Eyes” value (MNU 40 mg/kg, 3 d)?
The value was 8.

And the “a-wave amplitude of electroretinogram” value (MNU 40 mg/kg, 7 d)?
The value was 4.23 ± 9.27.

And the “a-wave latent period” value (MNU 40 mg/kg, 7 d)?
The value was 3.37 ± 7.15.

What about the “b-wave amplitude of electroretinogram” value (MNU 40 mg/kg, 7 d) of the same compound?
The value was 13.14 ± 27.85.

What about the “b-wave latent period” value (MNU 40 mg/kg, 7 d) of the same compound?
Its value is 12.33 ± 26.05.

What about the “Number of Eyes” value (MNU 40 mg/kg, 7 d) of the same compound?
The value was 8.

And the “a-wave amplitude of electroretinogram” value (MNU 40 mg/kg, 10 d)?
The value was 9.54 ± 12.89.

And the “a-wave latent period” value (MNU 40 mg/kg, 10 d)?
Its value is 6.64 ± 8.61.

And the “b-wave amplitude of electroretinogram” value (MNU 40 mg/kg, 10 d)?
Its value is 24.25 ± 31.58.

And the “b-wave latent period” value (MNU 40 mg/kg, 10 d)?
Its value is 27.31 ± 35.56.

What about the “Number of Eyes” value (MNU 40 mg/kg, 10 d) of the same compound?
Its value is 6.

And the “a-wave amplitude of electroretinogram” value (MNU 45 mg/kg, 12 h)?
Its value is 0.

And the “a-wave latent period” value (MNU 45 mg/kg, 12 h)?
The value was 6.60 ± 9.55.

And the “b-wave amplitude of electroretinogram” value (MNU 45 mg/kg, 12 h)?
Its value is 0.

What about the “b-wave latent period” value (MNU 45 mg/kg, 12 h) of the same compound?
The value was 25.08 ± 8.55.

What about the “Number of Eyes” value (MNU 45 mg/kg, 12 h) of the same compound?
The value was 6.

And the “a-wave amplitude of electroretinogram” value (MNU 45 mg/kg, 1 d)?
The value was 0.

And the “a-wave latent period” value (MNU 45 mg/kg, 1 d)?
The value was 0.

And the “b-wave amplitude of electroretinogram” value (MNU 45 mg/kg, 1 d)?
The value was 0.

What about the “b-wave latent period” value (MNU 45 mg/kg, 1 d) of the same compound?
The value was 0.

And the “Number of Eyes” value (MNU 45 mg/kg, 1 d)?
The value was 10.

And the “a-wave amplitude of electroretinogram” value (MNU 45 mg/kg, 3 d)?
Its value is 0.

And the “a-wave latent period” value (MNU 45 mg/kg, 3 d)?
The value was 0.

What about the “b-wave amplitude of electroretinogram” value (MNU 45 mg/kg, 3 d) of the same compound?
Its value is 0.

And the “b-wave latent period” value (MNU 45 mg/kg, 3 d)?
The value was 0.

And the “Number of Eyes” value (MNU 45 mg/kg, 3 d)?
Its value is 10.

And the “a-wave amplitude of electroretinogram” value (MNU 45 mg/kg, 7 d)?
Its value is 0.

What about the “a-wave latent period” value (MNU 45 mg/kg, 7 d) of the same compound?
Its value is 0.

And the “b-wave amplitude of electroretinogram” value (MNU 45 mg/kg, 7 d)?
Its value is 0.

And the “b-wave latent period” value (MNU 45 mg/kg, 7 d)?
The value was 0.

And the “Number of Eyes” value (MNU 45 mg/kg, 7 d)?
Its value is 10.

And the “a-wave amplitude of electroretinogram” value (MNU 45 mg/kg, 10 d)?
The value was 4.89 ± 10.48.

And the “a-wave latent period” value (MNU 45 mg/kg, 10 d)?
The value was 6.47 ± 7.33.

And the “b-wave amplitude of electroretinogram” value (MNU 45 mg/kg, 10 d)?
Its value is 11.31 ± 23.93.

What about the “b-wave latent period” value (MNU 45 mg/kg, 10 d) of the same compound?
Its value is 14.42 ± 30.46.

What about the “Number of Eyes” value (MNU 45 mg/kg, 10 d) of the same compound?
The value was 8.

And the “a-wave amplitude of electroretinogram” value (MNU 50 mg/kg, 12 h)?
The value was 0.

And the “a-wave latent period” value (MNU 50 mg/kg, 12 h)?
The value was 0.

And the “Number of Eyes” value (MNU 50 mg/kg, 12 h)?
The value was 10.

And the “a-wave amplitude of electroretinogram” value (MNU 50 mg/kg, 1 d)?
Its value is 0.

What about the “a-wave latent period” value (MNU 50 mg/kg, 1 d) of the same compound?
Its value is 0.

And the “Number of Eyes” value (MNU 50 mg/kg, 1 d)?
Its value is 10.

What about the “a-wave amplitude of electroretinogram” value (MNU 50 mg/kg, 3 d) of the same compound?
The value was 0.

What about the “a-wave latent period” value (MNU 50 mg/kg, 3 d) of the same compound?
The value was 0.

What about the “Number of Eyes” value (MNU 50 mg/kg, 3 d) of the same compound?
The value was 10.

And the “a-wave amplitude of electroretinogram” value (MNU 50 mg/kg, 7 d)?
The value was 0.

And the “a-wave latent period” value (MNU 50 mg/kg, 7 d)?
The value was 0.

And the “Number of Eyes” value (MNU 50 mg/kg, 7 d)?
The value was 10.

What about the “a-wave amplitude of electroretinogram” value (MNU 50 mg/kg, 10 d) of the same compound?
The value was 0.

And the “a-wave latent period” value (MNU 50 mg/kg, 10 d)?
Its value is 0.

And the “Number of Eyes” value (MNU 50 mg/kg, 10 d)?
The value was 10.
